Data on twelve molecules can be found in US9365556B2, “3,5-diaminopyrazole kinase inhibitors” (Axikin Pharmaceuticals, Inc., priority 2012, dated 2016).

Series [1] deals with T1, kinase domain protein of RC kinase (Homo sapiens, UniProt Q56UN5).
T1 sequence (Q56UN5 1061-1324 limits assumed): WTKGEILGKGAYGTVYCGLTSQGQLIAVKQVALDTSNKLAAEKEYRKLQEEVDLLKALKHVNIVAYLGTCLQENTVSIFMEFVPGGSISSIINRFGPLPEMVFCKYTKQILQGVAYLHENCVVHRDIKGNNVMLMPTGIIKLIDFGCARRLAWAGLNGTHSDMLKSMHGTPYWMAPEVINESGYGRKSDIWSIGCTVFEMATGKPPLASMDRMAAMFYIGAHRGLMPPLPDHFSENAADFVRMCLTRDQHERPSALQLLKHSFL
The series can be described thus: Enzymatic assay for kinase inhibitory activity (Crebtide substrate, LANCE read-out). Format: biochemical. The note with it: compound at 1 μM. In short, it runs like this: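 Compound tested at 1 μM final in HEPES/MgCl2/DTT buffer with 50 nM Crebtide and kinase domain at 1 μM ATP; full-length kinase at 3 μM ATP after 45 min preincubation. Reaction 45 min at room temperature, stopped with EDTA, read by LANCE TR-FRET (665/615 nm). Activity binned as % inhibition at 1 μM.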
(Time-resolved FRET reads energy transfer from a long-lived donor to a nearby acceptor.)

`NC(=O)c1c(Nc2cccc(Cl)c2)n[nH]c1/N=C/c1cc(Br)ccc1O` [Compound B49, 5-((5-bromo-2-hydroxybenzylidene)amino)-3-((3-chlorophenyl)amino)-1H-pyrazole-4-carboxamide]: the melting point was 281 to 283 °C. For the same molecule, the inhibition at 1 µM in series [1] was 5 to 20%.

Regarding `NC(=O)c1c(Nc2cccc(Cl)c2)n[nH]c1/N=C/c1cc(Cl)ccc1O` [Compound B50], the melting point was in the range of 283 to 287 °C. In addition, the inhibition at 1 µM in series [1] was in the range of 5 to 20%.

As for `COc1cccc(/C=N/c2[nH]nc(Nc3cccc(Cl)c3)c2C(N)=O)c1O` [Compound B53], the melting point fell in the range of 271 to 274 °C. Further, the inhibition at 1 µM in series [1] lay in the range of 5 to 20%.

Molecule `NC(=O)c1c(Nc2cccc(Cl)c2)n[nH]c1/N=C/c1ccccc1O` [Compound B54] displayed a melting point of 284 to 286 °C. The inhibition at 1 µM in series [1] fell in the range of 5 to 20%.

`NC(=O)c1c(Nc2ccccc2Cl)n[nH]c1/N=C/c1ccc(O)c([N+](=O)[O-])c1` [Compound B113] came in with a melting point of 301 to 304 °C. The inhibition at 1 µM in series [1] lay within 5 to 20%.

Consider `NC(=O)c1c(Nc2ccccc2Cl)n[nH]c1/N=C/c1ccc([N+](=O)[O-])c(O)c1` [Compound B114], for which the melting point is 294 to 296 °C. Moreover, in series [1], the inhibition at 1 µM was 20 to 50%.

As for `NC(=O)c1c(Nc2ccccc2Cl)n[nH]c1/N=C/c1ccc(O)cc1` [Compound B117], the melting point was in the range of 254 to 258 °C. For the same molecule, in series [1], the inhibition at 1 µM was at least 50%.

The molecule `COc1ccc(/C=N/c2[nH]nc(Nc3ccccc3Cl)c2C(N)=O)cc1[N+](=O)[O-]` [Compound B118] registered a melting point of 304 to 306 °C. Also, the inhibition at 1 µM in series [1] fell in the range of 5 to 20%.

Molecule `COc1ccc(/C=N/c2[nH]nc(Nc3ccccc3Cl)c2C(N)=O)c(O)c1` [Compound B119] gave a melting point of 267 to 270 °C. Further, in series [1], the inhibition at 1 µM lay within 5 to 20%.

`COc1ccc(/C=N/c2[nH]nc(Nc3ccccc3Cl)c2C(N)=O)cc1` [Compound B120] registered a melting point of 288 to 292 °C. Besides, the inhibition at 1 µM in series [1] is at least 50%.

Regarding `NC(=O)c1c(Nc2cccnc2)n[nH]c1/N=C/c1ccc(O)cc1` [Compound B121, 5-((4-hydroxybenzylidene)amino)-3-(pyridin-3-ylamino)-1H-pyrazole-4-carboxamide], the melting point was 306 to 309 °C. Also, in series [1], the inhibition at 1 µM was at least 50%.

In the case of `COc1ccc(/C=N/c2[nH]nc(Nc3cccc(Cl)c3)c2C(N)=O)cc1` [Compound B122], the melting point lay within 295 to 298 °C. Further, the inhibition at 1 µM in series [1] lay within 20 to 50%.

What is called inhibition is how much of the control response was suppressed. A word on the melting point: it is the temperature, or range, at which the solid turns liquid.
